Entries after “also recorded” stand apart in the source; their conditions may differ.
Columns and labels:
[1] = test system: experimental autoimmune encephalomyelitis (EAE); assay: EAE mouse model: relative axonal density, demyelination of the white matter, CD3+ cells; format: in vivo; details: propionic acid (DI or OD), FIG. 3
Experimental: FIG. 3: is a graph showing the effect of propionic acid diet initiated at the time of disease induction (DI) or at the time of onset of symptoms (OD) compared to a diet control group on relative axonal density, demyelination in the white matter, and CD3+ cells in the mouse EAE model.
(§1) Mice kept under standardized conditions were fed on a normal diet enriched with long-chain fatty acids (30.9% lauric acid) and with 200 μl of propionate daily administered orally. The propionate was given either at the time of disease induction (DI) or at the onset of the disease (OD).
(§2) For the induction of EAE the mice were anesthetized and administered two subcutaneous injections of a 50 μl emulsion applied to the left and right tail basis and comprising a total of 200 μg MOG35-55 (myelin oligodendrocyte glycoprotein) and 200 μg Freund's adjuvant (CFA) with 4 mg/ml of M. tuberculosis. Pertussis toxin ([…]) was given intraperitoneally on day 0 and day 2 after the induction. The clinical assessment took place on a daily basis using a 5-point scale (SEM). The assessment was as follows:
The influence of the propionic acid on the relative axonal density, the demyelination of the white matter, and the number of CD3+-cells is shown in FIG. 3.

Foxp3 = assay: Gene expression profiling of signature cytokines in EAE mice; format: in vivo, mouse; details: propionic acid-fed mice with EAE
Description: (§3) In mice treated with propionic acid, the number of regulatory T cells increases with the changes that occur in the microbiota (CD4+CD25+ Foxp3+ Treg).

TGFβ1 = assay: as above; format: in vivo, mouse; details: propionic acid-fed mice with EAE
Description: as §3

IL-10 = assay: as above; format: in vivo, mouse; details: propionic acid-fed mice with EAE
Description: as §3

CD4+CD25+ Foxp3+ Treg = assay: Levels of CD4+CD25+ Foxp3 regulatory T cells in mouse EAE model; format: in vivo
Experimental: FIG. 4: is a graph showing the effect of propionic acid diet initiated at the time of disease induction (DI) compared to a control group on levels of CD4+CD25+ Foxp3 cells in mouse EAE model
FIG. 5 is a graph showing the effect of lauric acid diet (250 μM and 500 μM) initiated at the time of disease induction (DI) compared to a control group on levels of CD4+CD25+ Foxp3 cells in mouse EAE model,
as §1
as §2, with “(SEM).” for “(SEM). The assessment was as follows:”

[2] = test system: experimental autoimmune encephalomyelitis (EAE); assay: EAE mouse model, daily clinical assessment on 5-point scale (SEM); format: in vivo
Experimental: as §1, §2
0=normal 1=Tail paralysis impairing raising 2=Gait ataxia 3=Paraparesis of hind legs
Mice showing SEM 4 or 5 were excluded.

Treg cells = Treg cells in MS patients before and after 14 days of treatment with sodium propionate plus MS drug; format: in vivo, human; details: pooled comparison group, patient-specific dose of the MS drug together with sodium propionate 2×0.5 g daily, before vs after 14 days, FIG. 6
Description: The disproportionate increase in the amount of Treg cells signifies a corresponding reduction in the autoimmune response.

intestinal microbiome = assay: Influence on composition of the intestinal microbiome; format: in vivo; details: present in mice
Description: The inventive acids, in particular propionic acid and butyric acid have an influence on the intestinal physiology and the microbiome present there. In this way, they have an impact on the composition of the microbiome.

TH1 and TH17 cells = assay: Th1/Th17 cells in small bowel and central nervous system in EAE mice; format: in vivo; details: mouse EAE, lauric acid enriched diet
Description: Moreover, the aliphatic chain length of the carboxylic acids also affects the […] autoimmunity as well as the regulatory response of Treg in an in vivo mouse model. […] In this context, MS and psoriasis are to be regarded as largely similar.

In the case of CCC(=O)O [propionic acid], the “relative axonal density, demyelination of the white matter and number of CD3+ cells versus control group” value [1] is reported as “significant improvement”, the Foxp3 gene expression (Foxp3) is reported as “increased values; also recorded: significant increase” and the TGFβ1 gene expression (TGFβ1) is reported as “increased values; also recorded: significant increase”. For the same compound, the IL-10 gene expression (IL-10) was “increased values; also recorded: significant increase”, the “CD4+CD25+ Foxp3 cells versus control group” value (CD4+CD25+ Foxp3+ Treg; propionic acid administration (DI), FIG. 4) was “increases; also recorded: significant increase” and the “course of induced disease versus control group” value ([2]; MS mouse model (EAE), propionic acid given prophylactically) was “significant improvement”. The “disease progression (SEM) versus control group” value ([2]; mouse EAE, propionic acid given orally on the day of onset of disease (OD), FIG. 2) was “significantly less favorable disease progression than the control group”.
In the case of CCCCCCCCc1ccc(CCC(N)(CO)CO)cc1 [fingolimod], the “increase in number of Treg cells by a factor” value (shortened to “increase in number”) (Treg cells) is reported as 1.1.
CCCCCCCCCCCC(=O)O [lauric acid] was tested, and the “number of Provotellaceae and some families of Phylum Bacteroidetes” value (intestinal microbiome) was “reduce significantly”, the “CD4+CD25+ Foxp3 cells versus control value” (CD4+CD25+ Foxp3+ Treg; lauric acid enriched diet (250 μM and 500 μM), concentration dependent, FIG. 5) was “reduction” and the “TH1 and TH17 cells in the small bowel” value (TH1 and TH17 cells) was “significant reduction”. For the same compound, the “Th1/Th17 in the central nervous system” value (TH1 and TH17 cells) was “accumulation”.
C/C(O)=C(\C#N)C(=O)Nc1ccc(C(F)(F)F)cc1 [teriflunomide] was tested, and the “increase in number” value (Treg cells) was 1.1.
With glatiramer acetate the “increase in number” value (Treg cells) was 1.1.

From patent publication US20200323802A1, “SUPPORTING IMMUNOMODULATORY AGENT” (Flexopharm Brain GMBH & Go. KG, priority 2015, published 2020)
